Results taken from patent publication US20230295087A1, “AGONISTS OF ROR GAMMAt” (BRISTOL-MYERS SQUIBB COMPANY, priority 2019, published 2023).

target: T1, human RORgT (Homo sapiens, UniProt P51449); assay: RORgT Gal4 Luciferase Reporter Gene Assay; assay type: cell-based; conditions: engineered Jurkat cells overexpressing RORgT (LBD or full length) fused with Gal4 Luc reporter; 18 hours at 37° C.; luminescence
T1 construct: expressed in transfected cells
T1 sequence (P51449 267-516): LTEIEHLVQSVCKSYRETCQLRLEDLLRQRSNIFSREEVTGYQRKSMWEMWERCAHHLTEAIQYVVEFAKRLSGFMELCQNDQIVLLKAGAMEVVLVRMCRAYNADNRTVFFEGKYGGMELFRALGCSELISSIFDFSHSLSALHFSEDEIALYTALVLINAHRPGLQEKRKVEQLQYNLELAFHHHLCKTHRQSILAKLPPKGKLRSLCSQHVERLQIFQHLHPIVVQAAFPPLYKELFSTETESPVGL
How it was run: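 Jurkat cells expressing Gal4 Luc with either RORgT LBD (aa267-516) or full-length human RORgT, 10,000 cells/well, treated with compound (40 µM to 0.67 nM final, 3-fold dilutions) for 18 h at 37° C. Steady-Glo luminescence read; inhibition of constitutive activity as % signal-window reduction relative to a control compound.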

Compared with `NS(=O)(=O)CC(=O)N1CC[C@@]2(S(=O)(=O)c3ccc(F)cc3)c3ccc(OCc4cc(Cl)ccc4Cl)cc3CC[C@@H]12` [Example 209, 2-[(3aR,9bR)-7-[(2,5-dichlorophenyl)methoxy]-9b-(4-fluorobenzenesulfonyl)-1H,2H,3H,3aH,4H,5H,9bH-benzo[e]indol-3-yl]-2-oxoethane-1-sulfonamide], `NC(=O)N1CCC(C(=O)N2CC[C@@]3(S(=O)(=O)c4ccc(F)cc4)c4ccc(OCc5cc(F)c(F)cc5Cl)cc4CC[C@@H]23)CC1` [Example 210, 4-[(3aR,9bR)-7-[(2-chloro-4,5-difluorophenyl)methoxy]-9b-(4-fluorobenzenesulfonyl)-1H,2H,3H,3aH,4H,5H,9bH-benzo[e]indole-3-carbonyl] piperidine-1-carboxamide] is 13-fold lower in EC50: 124 nM for the first, 9.9 nM for the second. The second is the more potent here.

`NS(=O)(=O)CC(=O)N1CC[C@@]2(S(=O)(=O)c3ccc(F)cc3)c3ccc(OCc4cc(F)c(F)cc4Cl)cc3CC[C@@H]12` [Example 211, 2-[(3aR,9bR)-7-[(2-chloro-4,5-difluorophenyl)methoxy]-9b-(4-fluorobenzenesulfonyl)-1H,2H,3H,3aH,4H,5H,9bH-benzo[e]indol-3-yl]-2-oxoethane-1-sulfonamide] and `CN1CCC(C(=O)N2CC[C@@]3(S(=O)(=O)c4ccc(F)cc4)c4ccc(OCc5cc(F)c(F)cc5Cl)cc4CC[C@@H]23)CC1` [Example 212, 4-[(3aR,9bR)-7-[(2-chloro-4,5-difluorophenyl)methoxy]-9b-(4-fluorobenzenesulfonyl)-1H,2H,3H,3aH,4H,5H,9bH-benzo[e]indole-3-carbonyl]-1-methylpiperidine] are within 1.5-fold of each other in EC50: 110 nM for the first, 160 nM for the second.

`O=C(C1CCS(=O)(=O)C1)N1CC[C@@]2(S(=O)(=O)c3ccc(F)cc3)c3ccc(OCc4cc(F)c(F)cc4Cl)cc3CC[C@@H]12` (stereo partly drawn) [Example 213, 3-[(3aR,9bR)-7-[(2-chloro-4,5-difluorophenyl)methoxy]-9b-(4-fluorobenzenesulfonyl)-1H,2H,3H,3aH,4H,5H,9bH-benzo[e]indole-3-carbonyl]-1λ^6-thiolane-1,1-dione] and `CC(=O)N1CCC(C(=O)N2CC[C@@]3(S(=O)(=O)c4ccc(F)cc4)c4ccc(OCc5c(F)cc(F)cc5Cl)cc4CC[C@@H]23)CC1` [Example 214, 1-{4-[(3aR,9bR)-7-[(2-chloro-4,6-difluorophenyl)methoxy]-9b-(4-fluorobenzenesulfonyl)-1H,2H,3H,3aH,4H,5H,9bH-benzo[e]indole-3-carbonyl]piperidin-1-yl}ethan-1-one] are within 1.5-fold of each other in EC50: 4.9 nM for the first, 5.3 nM for the second.

First: CN1CCC(C(=O)N2CC[C@@]3(S(=O)(=O)c4ccc(F)cc4)c4ccc(OCc5c(F)cc(F)cc5Cl)cc4CC[C@@H]23)CC1 [Example 215, 4-[(3aR,9bR)-7-[(2-chloro-4,6-difluorophenyl)methoxy]-9b-(4-fluorobenzenesulfonyl)-1H,2H,3H,3aH,4H,5H,9bH-benzo[e]indole-3-carbonyl]-1-methylpiperidine]
Second: CS(=O)(=O)CC(=O)N1CC[C@@]2(S(=O)(=O)c3ccc(F)cc3)c3ccc(OCc4cc(F)c(F)cc4Cl)cc3CC[C@@H]12 [Example 216, 1-[(3aR,9bR)-7-[(2-chloro-4,5-difluorophenyl)methoxy]-9b-(4-fluorobenzenesulfonyl)-1H,2H,3H,3aH,4H,5H,9bH-benzo[e]indol-3-yl]-2-methanesulfonylethan-1-one]
The EC50 of the first is 1.7-fold lower: 157 nM for the first, 266 nM for the second.

Compared with `CS(=O)(=O)CC(=O)N1CC[C@@]2(S(=O)(=O)c3ccc(F)cc3)c3ccc(OCc4c(F)cc(F)cc4Cl)cc3CC[C@@H]12` [Example 217, 1-[(3aR,9bR)-7-[(2-chloro-4,6-difluorophenyl)methoxy]-9b-(4-fluorobenzenesulfonyl)-1H,2H,3H,3aH,4H,5H,9bH-benzo[e]indol-3-yl]-2-methanesulfonylethan-1-one], `O=C(C1CCS(=O)(=O)C1)N1CC[C@@]2(S(=O)(=O)c3ccc(F)cc3)c3ccc(OCc4c(F)cc(F)cc4Cl)cc3CC[C@@H]12` (stereo partly drawn) [Example 218, 3-[(3aR,9bR)-7-[(2-chloro-4,6-difluorophenyl)methoxy]-9b-(4-fluorobenzenesulfonyl)-1H,2H,3H,3aH,4H,5H,9bH-benzo[e]indole-3-carbonyl]-1λ^6-thiolane-1,1-dione] is 14-fold lower in EC50: 168 nM for the first, 12 nM for the second.

Going from `CC(=O)N1CCC(C(=O)N2CC[C@@]3(S(=O)(=O)c4ccc(F)cc4)c4ccc(OCc5cc(F)c(F)cc5Cl)cc4CC[C@@H]23)CC1` [Example 219, 1-{4-[(3aR,9bR)-7-[(2-chloro-4,5-difluorophenyl)methoxy]-9b-(4-fluorobenzenesulfonyl)-1H,2H,3H,3aH,4H,5H,9bH-benzo[e]indole-3-carbonyl]piperidin-1-yl}ethan-1-one] to `NC(=O)N1CCC(C(=O)N2CC[C@@]3(S(=O)(=O)c4ccc(F)cc4)c4ccc(OCc5c(F)cc(F)cc5Cl)cc4CC[C@@H]23)CC1` [Example 220, 4-[(3aR,9bR)-7-[(2-chloro-4,6-difluorophenyl)methoxy]-9b-(4-fluorobenzenesulfonyl)-1H,2H,3H,3aH,4H,5H,9bH-benzo[e]indole-3-carbonyl]piperidine-1-carboxamide], the EC50 falls from 53 nM to 13 nM (4.1-fold). The second is the more potent here.

First: O=C(CN1CCS(=O)(=O)CC1)N1CC[C@@]2(S(=O)(=O)c3ccc(F)cc3)c3ccc(OCc4cc(F)c(F)cc4Cl)cc3CC[C@@H]12 [Example 221, 4-{2-[(3aR,9bR)-7-[(2-chloro-4,5-difluorophenyl)methoxy]-9b-(4-fluorobenzenesulfonyl)-1H,2H,3H,3aH,4H,5H,9bH-benzo[e]indol-3-yl]-2-oxoethyl}-1λ^6-thiomorpholine-1,1-dione]
Second: [2H]C([2H])(Oc1ccc2c(c1)CC[C@H]1N(C(=O)[C@H]3CC[C@H](C(=O)O)CC3)CC[C@@]21S(=O)(=O)c1ccc(F)cc1)c1c(F)cccc1Cl [Example 222]
The EC50 of the first is 8.7-fold higher: 34 nM for the first, 3.9 nM for the second. The second is the more potent here.

“(1R,4r)-4-((3aR,9bR)-7-((2-chloro-6-fluorobenzyl)oxy)-9b-((4-fluorophenyl)sulfonyl)-2,3,3a,4,5,9b-hexahydro-1H-benzo[e]indole-3-carbonyl)-1-methylcyclohexanecarboxylic acid [Example 8]” showed an EC50 of 12 nM.
